From patent US6372493B1, “Hormone-secreting cells maintained in long-term culture” (Pacific Biomedical Research, Inc. [Cell Mart, Inc.], priority 1991, dated 2002)

Key:
[1] = test system: Human pancreas cell cultures, 55 generations; test: Time course of insulin secretion in response to glucose (Example 18); assay type: cell-based
Protocol: Human pancreas cell cultures from Example 16 were maintained in continuous culture through 55 generations, at which time they had been in culture for 12 months.
Two hours prior to the experiment, the cells were centrifuged at 1070 rpm for 5 minutes and then resuspended in glucose-poor medium consisting of 1 part DMSS plus 6 parts PDM. The cells were incubated in glucose-poor medium (glucose-starved) at a concentration of about 1.5×10^6 cells/ml in 10 ml culture flasks for two hours at 37°.
The cells were then centrifuged and resuspended in the experimental medium consisting of one part DMSS and six parts PDM. The glucose concentration in the experimental medium alone was 1.1 mM. To this medium was added glucose in the concentrations shown in Table 12 below, and the cells were incubated for various times.

daughter-islet cells = test: Daughter islet cell insulin secretion in response to glucose, RIA (Example 25); assay type: cell-based, human; conditions: for Secreted Insulin: 17 months of culture, one hour
Protocol: The daughter-islets were obtained as progeny arising through cell division from islet cells in the cultured whole islets obtained as isolates from human pancreases. After 17 months of culture the daughter-islet cells were analyzed for their ability to secrete insulin in response to physiological levels of glucose. Formula VI, as described in Examples 22 and 24 with designated glucose concentrations of 2 mM (Basal level), 7.6 mM (Maintence level), 12 mM and 22 mM was used for the experiment. Care was taken to control the osmolarity of each medium to the range of 260-268 mOsm so that no strong osmotic shock was administered to the daughter-islet cells. The cells were washed 5 times, at 20 minutes each wash, with the basal level medium (2 mM glucose level) before the experiment. Each group of 5 daughter-islet was placed in 1 ml of the test medium and incubated at 37° C., with 5% CO2/5% O2/90% N2, for one hour. The medium was collected for assay and new medium containing 7.6 mM glucose was added. The one hour incubation, using the same conditions was then repeated. Those steps were repeated for the challenges with medium containing 12 mM and 22 mM glucose. Analysis of insulin secretion levels was done by RIA as described in Example 24.

[2] = test system: human pancreas whole islets; test: Insulin secretion of cultured whole islets in response to glucose, RIA (Example 24); assay type: cell-based; conditions: +10 mM Glucose (Total 12 mM Glucose)
Protocol: The whole islets were isolated and obtained as described in Example 22. Prior to this experiment they had been in culture for 3¾ months in OCZEM-M and were passage generation 11. Insulin secretion was measured by RIA (Diagnostic Products Corporation).
The cultured whole islets were washed in basal medium [RPMI (5×@ 20 minutes) before the experiment. Then individual whole islets were cultured in the basal level medium containing 2 mM glucose described in Example 22 for 3½ hours (1 islet/1 ml). Each individual islet was then transferred to 1 ml of the basal medium containing an additional 10 mM glucose (to yield a total glucose concentration of 12 mM) and cultured for another 3½ hours. A comparison of the resulting amounts of secreted insulin is shown below in Table 16. Each individual islet was placed in a separate culture dish after the experiment so that future tests on insulin secretion could be measured on identified islets.

[3] = test system: cultured pancreatic islet cells (daughter-islets); test: Immunofluorescence for insulin after BUDR labelling and glucose stimulation (Example 23); assay type: cell-based, human; conditions: 12 mM glucose 6 hours
Protocol: The tests were done on the same long term cultured daughter-islets described in Example 22, after 3 months of culture (8 passage generations) and after 8 months of cell culture (16 passage generations). Cultures of the daughter-islets were exposed to 30 μgm/ml BUDR for 5 days. The cultures were then placed in normal culture medium (OCZEM-M) for another 5 days. Cultures were then given the same glucose poor basal medium described in Formula VI for 4 hours. Subsequently medium containing 12 mM glucose, described in Example 22, was provided for 6 hours. Cells were immediately fixed and prepared for immunofluorescence. A FITC conjugated secondary antibody to detect BUDR incorporation during DNA synthesis and a TRITC conjugated secondary antibody to detect insulin synthesis in response to glucose stimulation were used according to the following protocol.
d. Cell preparation used procedures to swell the nucleus and preferentially fix the chromosomes in order to maximize the ability to detect BUDR incorporation. The procedures are commonly used to prepare human embryonic cells for florescence in situ hybridization (FISH).
9. Primary antibodies were added, 100 ul @ and the slides were incubated in a moist chamber for 18 hours at 20° C.
11. Secondary antibodies were added to EVERY slide (including the negative controls) in very dim light, 100 ul @ and then the slides were incubated in the dark for 60 minutes at room temperature.
16. After 24 hours the preparations were photographed with Kodak Ektar 100 using Zeiss optics and fluorescence filters (No 2 for Hoechst, No 9 for FITC and No 15 for TRITC).

Q: How did the Insulin secreted ([1]; 1 mM glucose added, 1 hr) turn out when O=C[C@H](O)[C@@H](O)[C@H](O)[C@H](O)CO [glucose, D(+)glucose] was run?
A: The Insulin secreted was 275 μIU Insulin secreted/1.5 milli.

Q: And the Insulin secreted ([1]; 1 mM glucose added, 2 hr)?
A: The Insulin secreted was 363 μIU Insulin secreted/1.5 milli.

Q: What about the Insulin secreted ([1]; 1 mM glucose added, 3 hr) of the same compound?
A: Its Insulin secreted is 451 μIU Insulin secreted/1.5 milli.

Q: What about the Insulin secreted ([1]; 1 mM glucose added, 5 hr) of the same compound?
A: Its Insulin secreted is 564 μIU Insulin secreted/1.5 milli.

Q: And the Insulin secreted ([1]; 1 mM glucose added, 7 hr)?
A: Its Insulin secreted is 582 μIU Insulin secreted/1.5 milli.

Q: What about the Insulin secreted ([1]; 1 mM glucose added, 24 hr) of the same compound?
A: The Insulin secreted was 812 μIU Insulin secreted/1.5 milli.

Q: What about the Insulin secreted ([1]; 5.6 mM glucose added, 1 hr) of the same compound?
A: Its Insulin secreted is 3413 μIU Insulin secreted/1.5 milli.

Q: What about the Insulin secreted ([1]; 5.6 mM glucose added, 2 hr) of the same compound?
A: Its Insulin secreted is 982 μIU Insulin secreted/1.5 milli.

Q: What about the Insulin secreted ([1]; 5.6 mM glucose added, 3 hr) of the same compound?
A: Its Insulin secreted is 999 μIU Insulin secreted/1.5 milli.

Q: What about the Insulin secreted ([1]; 5.6 mM glucose added, 5 hr) of the same compound?
A: Its Insulin secreted is 2383 μIU Insulin secreted/1.5 milli.

Q: What about the Insulin secreted ([1]; 5.6 mM glucose added, 7 hr) of the same compound?
A: The Insulin secreted was 2718 μIU Insulin secreted/1.5 milli.

Q: And the Insulin secreted ([1]; 5.6 mM glucose added, 24 hr)?
A: Its Insulin secreted is 2760 μIU Insulin secreted/1.5 milli.

Q: What about the Insulin secreted ([1]; 11.0 mM glucose added, 1 hr) of the same compound?
A: The Insulin secreted was 3376 μIU Insulin secreted/1.5 milli.

Q: What about the Insulin secreted ([1]; 11.0 mM glucose added, 2 hr) of the same compound?
A: Its Insulin secreted is 1768 μIU Insulin secreted/1.5 milli.

Q: And the Insulin secreted ([1]; 11.0 mM glucose added, 3 hr)?
A: The Insulin secreted was 2220 μIU Insulin secreted/1.5 milli.

Q: And the Insulin secreted ([1]; 11.0 mM glucose added, 5 hr)?
A: The Insulin secreted was 1184 μIU Insulin secreted/1.5 milli.

Q: And the Insulin secreted ([1]; 11.0 mM glucose added, 7 hr)?
A: The Insulin secreted was 3202 μIU Insulin secreted/1.5 milli.

Q: And the Insulin secreted ([1]; 11.0 mM glucose added, 24 hr)?
A: The Insulin secreted was 1276 μIU Insulin secreted/1.5 milli.

Q: And the Insulin secreted ([1]; 16.5 mM glucose added, 1 hr)?
A: Its Insulin secreted is 3716 μIU Insulin secreted/1.5 milli.

Q: What about the Insulin secreted ([1]; 16.5 mM glucose added, 2 hr) of the same compound?
A: The Insulin secreted was 2415 μIU Insulin secreted/1.5 milli.

Q: What about the Insulin secreted ([1]; 16.5 mM glucose added, 3 hr) of the same compound?
A: Its Insulin secreted is 2450 μIU Insulin secreted/1.5 milli.

Q: And the Insulin secreted ([1]; 16.5 mM glucose added, 5 hr)?
A: Its Insulin secreted is 2589 μIU Insulin secreted/1.5 milli.

Q: And the Insulin secreted ([1]; 16.5 mM glucose added, 7 hr)?
A: Its Insulin secreted is 4039 μIU Insulin secreted/1.5 milli.

Q: And the Insulin secreted ([1]; 16.5 mM glucose added, 24 hr)?
A: Its Insulin secreted is 2099 μIU Insulin secreted/1.5 milli.

Q: And the Insulin secreted ([1]; 22 mM glucose added, 1 hr)?
A: The Insulin secreted was 2538 μIU Insulin secreted/1.5 milli.

Q: What about the Insulin secreted ([1]; 22 mM glucose added, 2 hr) of the same compound?
A: The Insulin secreted was 1845 μIU Insulin secreted/1.5 milli.

Q: And the Insulin secreted ([1]; 22 mM glucose added, 3 hr)?
A: Its Insulin secreted is 2066 μIU Insulin secreted/1.5 milli.

Q: And the Insulin secreted ([1]; 22 mM glucose added, 5 hr)?
A: Its Insulin secreted is 1722 μIU Insulin secreted/1.5 milli.

Q: What about the Insulin secreted ([1]; 22 mM glucose added, 7 hr) of the same compound?
A: Its Insulin secreted is 1320 μIU Insulin secreted/1.5 milli.

Q: What about the Insulin secreted ([1]; 22 mM glucose added, 24 hr) of the same compound?
A: Its Insulin secreted is 989 μIU Insulin secreted/1.5 milli.

Q: What about the Insulin secreted ([1]; 33 mM glucose added, 1 hr) of the same compound?
A: The Insulin secreted was 972 μIU Insulin secreted/1.5 milli.

Q: What about the Insulin secreted ([1]; 33 mM glucose added, 2 hr) of the same compound?
A: Its Insulin secreted is 345 μIU Insulin secreted/1.5 milli.

Q: What about the Insulin secreted ([1]; 33 mM glucose added, 3 hr) of the same compound?
A: Its Insulin secreted is 446 μIU Insulin secreted/1.5 milli.

Q: What about the Insulin secreted ([1]; 33 mM glucose added, 5 hr) of the same compound?
A: Its Insulin secreted is 657 μIU Insulin secreted/1.5 milli.

Q: And the Insulin secreted ([1]; 33 mM glucose added, 7 hr)?
A: Its Insulin secreted is 1109 μIU Insulin secreted/1.5 milli.

Q: What about the Insulin secreted ([1]; 33 mM glucose added, 24 hr) of the same compound?
A: The Insulin secreted was 1073 μIU Insulin secreted/1.5 milli.

Q: And the “glucose concentration of maximal response” value ([1]; glucose-starved cells, 1 to 24 hr)?
A: Its value is 16.5 mM.

Q: And the “Secreted Insulin” value (daughter-islet cells; 12 mM glucose)?
A: Its value is 38.6 μIU/ml/hour/10^3 cells.

Q: What about the “Secreted Insulin” value (daughter-islet cells; 22 mM glucose) of the same compound?
A: Its value is 144.5 μIU/ml/hour/10^3 cells.

Q: What about the “maximal response relative to the basal level” value (daughter-islet cells; basal level 0.3 at 2 mM glucose) of the same compound?
A: Its value is 482 times.

Q: What about the “Secreted Insulin” value ([2]; 2 Medium islets @) of the same compound?
A: Its value is 162.2 uIU/ml/hr.

Q: What about the “Secreted Insulin” value ([2]; 2 Very small islets @ (<0.5 μm)) of the same compound?
A: The value was 84.5 uIU/ml/hr.

Q: And the “Secreted Insulin” value ([2]; Extra large islet (>250 μm), 3½ hours)?
A: The value was 86.7 uIU/ml/hr.

Q: And the “Secreted Insulin” value ([2]; Large islet (˜150 μm))?
A: Its value is 149.4 uIU/ml/hr.

Q: And the Insulin positive ([3]; 8th passage generation (3 mo. culture))?
A: The Insulin positive was 86%.

Q: And the “Insulin positive (number of cells)” value ([3]; 8th passage generation (3 mo. culture), 204 cells analyzed)?
A: The value was 175.

Q: What about the Insulin positive ([3]; 16th passage generation (8 mos. culture)) of the same compound?
A: Its Insulin positive is 90%.

Q: And the “Insulin positive (number of cells)” value ([3]; 16th passage generation (8 mos. culture), 187 cells analyzed)?
A: The value was 168.
